Columns and labels:
Assay in all cases: relative viability (nuclei count vs DMSO), 5 days (fraction); higher = more cells survive
GW-2580 = compound: COC1=CC=C(C=C1)COC2=C(C=C(C=C2)CC3=CN=C(N=C3N)N)OC [GW-2580]
Summary of the method: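 Five library-drug doses spaced by √10 were pinned onto vehicle-anchored 1536-well plates of lung cancer cell lines that had been kept overnight at 37 °C. Cells went 5 days without medium change, then were fixed, permeabilised and Hoechst-stained together, imaged at 4× and counted by MetaXpress. Viability is the ratio of treated-well to vehicle-well nuclei, taken as a median over plates. Plates required control CV below 25% and at least one doubling.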

Fedratinib + Crizotinib = compound: Cc1cnc(Nc2ccc(OCCN3CCCC3)cc2)nc1Nc1cccc(S(=O)(=O)NC(C)(C)C)c1 [Fedratinib] + C[C@@H](Oc1cc(-c2cnn(C3CCNCC3)c2)cnc1N)c1c(Cl)ccc(F)c1Cl [Crizotinib] (partner 1 µM)
Summary of the method: (§1)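 Lung cancer cell lines in 1536-well plates got either a single drug or a fixed anchor-drug dose together with five library-drug doses (not always all listed) in √10 steps, by pin tool, on the day after seeding. Nuclei were counted after 5 days, and relative viability is the treated-to-vehicle ratio of nuclei counts. Values are medians of duplicate plates.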

GW-2580 + Alpelisib = compound: COC1=CC=C(C=C1)COC2=C(C=C(C=C2)CC3=CN=C(N=C3N)N)OC [GW-2580] + Cc1nc(NC(=O)N2CCC[C@H]2C(N)=O)sc1-c1ccnc(C(C)(C)C(F)(F)F)c1 [Alpelisib] (partner 2 µM)
Summary of the method: as §1

Fedratinib + Foretinib = compound: Cc1cnc(Nc2ccc(OCCN3CCCC3)cc2)nc1Nc1cccc(S(=O)(=O)NC(C)(C)C)c1 [Fedratinib] + COc1cc2c(Oc3ccc(NC(=O)C4(C(=O)Nc5ccc(F)cc5)CC4)cc3F)ccnc2cc1OCCCN1CCOCC1 [Foretinib] (partner 0.25 µM)
Summary of the method: as §1

GW-2580 + Dasatinib = compound: COC1=CC=C(C=C1)COC2=C(C=C(C=C2)CC3=CN=C(N=C3N)N)OC [GW-2580] + Cc1nc(Nc2ncc(C(=O)Nc3c(C)cccc3Cl)s2)cc(N2CCN(CCO)CC2)n1 [Dasatinib] (partner 0.075 µM)
Summary of the method: as §1

| Cell Line | relative viability (GW-2580; 0.08 µM) | relative viability (GW-2580; 0.8 µM) | relative viability (GW-2580; 2.53 µM) | relative viability (GW-2580; 8 µM) | relative viability (Fedratinib + Crizotinib; first compound 0.1 µM) | relative viability (Fedratinib + Crizotinib; first compound 0.3162 µM) | relative viability (Fedratinib + Crizotinib; first compound 1 µM) | relative viability (GW-2580 + Alpelisib; first compound 0.08 µM) | relative viability (GW-2580 + Alpelisib; first compound 0.8 µM) | relative viability (GW-2580 + Alpelisib; first compound 2.53 µM) | relative viability (GW-2580 + Alpelisib; first compound 8 µM) | relative viability (Fedratinib + Foretinib; first compound 0.1 µM) | relative viability (Fedratinib + Foretinib; first compound 0.3162 µM) | relative viability (Fedratinib + Foretinib; first compound 1 µM) | relative viability (GW-2580 + Dasatinib; first compound 0.08 µM) | relative viability (GW-2580 + Dasatinib; first compound 0.8 µM) | relative viability (GW-2580 + Dasatinib; first compound 2.53 µM) | relative viability (GW-2580 + Dasatinib; first compound 8 µM) |
| --- | --- | --- | --- | --- | --- | --- | --- | --- | --- | --- | --- | --- | --- | --- | --- | --- | --- | --- |
| Calu-6 | 1.12 | 1.1 | 0.96 | 1.04 | 0.753 | 0.701 | 0.677 | 1.08 | 0.964 | 0.902 | 1.07 | 0.855 | 0.857 | 0.784 | – | – | – | – |
| ChaGo-K-1 | 0.938 | 0.985 | 1.01 | 0.999 | 0.851 | 1.06 | 0.975 | – | – | – | – | 0.811 | 0.923 | 0.899 | 0.663 | 0.552 | 0.605 | 0.587 |
| EBC-1 | 1.07 | 1.17 | 0.889 | 0.949 | 0.184 | 0.213 | 0.185 | 0.91 | 1 | 0.746 | 0.887 | 0.112 | 0.103 | 0.1 | – | – | – | – |
| EKVX | 0.962 | 1.22 | 0.81 | 0.941 | 1.05 | 0.889 | 0.958 | 0.898 | 1.02 | 0.91 | 0.874 | 0.791 | 0.687 | 0.828 | 0.613 | 0.655 | 0.431 | 0.527 |
| EMC-BAC-2 | 1.02 | 1.12 | 0.643 | 0.901 | 0.615 | 0.73 | 0.7 | 0.834 | 0.777 | 0.686 | 0.787 | 1 | 1.01 | 1 | 0.317 | 0.308 | 0.264 | 0.316 |
| EPLC-272H | 0.995 | 1.15 | 0.763 | 0.891 | 1 | 0.87 | 0.757 | 0.996 | 1.08 | 0.904 | 0.98 | 0.558 | 0.684 | 0.472 | 0.353 | 0.385 | – | 0.283 |
| H3255 | 0.954 | 1.2 | 0.894 | 0.85 | 0.873 | 0.805 | 0.723 | 0.659 | 0.846 | 0.686 | 0.676 | 0.82 | 0.766 | 0.877 | 0.287 | 0.436 | 0.345 | 0.281 |
| HARA | 1.11 | 1.16 | 0.951 | 0.902 | 1.16 | 1.04 | 1.05 | 0.958 | 0.927 | 0.578 | 0.8 | 0.948 | 0.493 | 0.782 | 0.276 | 0.253 | 0.261 | 0.0615 |
